For 15 compounds, TGI and GI50 results are on record in PubChem BioAssay (NCI).

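Protocol summary: plate cells (96-well), add compound at 5 concentrations, incubate 48 h, interpolate endpoints linearly. At the GI50, growth is halved. Definition used: TGI = concentration required for complete inhibition of growth.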

Test systems include HOP-92 NSCLC; COLO 205 colon; TK-10 renal; M14 melanoma; HCT-116 colon; IGROV1 ovarian; EKVX NSCLC; MALME-3M melanoma; A549 NSCLC; A498 renal.
Experiment in all cases: NCI-60 cell line screen, 48 h

With `COC(=O)/C(=N\NC(=S)NN)C(C(=O)C(=O)Nc1ccccc1C(N)=O)c1nc2ccccc2[nH]c1=O` (stereo unspecified), the TGI in the assay on HOP-92 NSCLC, in the assay on COLO 205 colon, with TK-10 renal, in the assay on M14 melanoma, in the assay with HCT-116 colon and in the assay with IGROV1 ovarian was more than 100 µM each time. Further, the TGI in the assay on EKVX NSCLC, with MALME-3M melanoma and in the assay with A549 NSCLC was more than 100 µM throughout.
Turning to `O=C1CCn2c([nH]c3cccc4cccc2c43)=N1`, the TGI in the assay on COLO 205 colon, in the assay with TK-10 renal, in the assay on M14 melanoma, with HCT-116 colon, in the assay with IGROV1 ovarian and in the assay with EKVX NSCLC was more than 100 µM throughout. In the assay with A549 NSCLC, this compound returned a TGI of more than 100 µM.
In the case of `O=C(NN1C(=O)CSC1c1ccc(Cl)c(Cl)c1)c1ccncc1` (stereo unspecified), the TGI with COLO 205 colon, in the assay on TK-10 renal, with M14 melanoma, with IGROV1 ovarian, with EKVX NSCLC and with A498 renal was more than 100 µM in each case. Besides, the TGI in the assay with MALME-3M melanoma and with A549 NSCLC was more than 100 µM each time.
As to `c1ccc(-c2ccc(N=NN3CCCC3)cc2)cc1`, the TGI in the assay with HOP-92 NSCLC, with COLO 205 colon, with TK-10 renal, in the assay on M14 melanoma, in the assay with HCT-116 colon and in the assay on IGROV1 ovarian was more than 100 µM throughout. For the same compound, the TGI in the assay with EKVX NSCLC and in the assay with A498 renal was more than 100 µM in each case.
For the compound `C(=N/Nc1ccc(-c2nc3ccccc3[nH]2)cc1)/c1c(-c2ccccc2)[nH]c2ccccc12`, the TGI in the assay on HOP-92 NSCLC is more than 100 µM; with TK-10 renal, more than 100 µM; with M14 melanoma it was more than 100 µM; in the assay with HCT-116 colon, 16.8 µM; in the assay with IGROV1 ovarian, more than 100 µM; in the assay with EKVX NSCLC, more than 100 µM.
With `COC(=O)C(=O)C(C(=O)C(=O)Nc1cc([N+](=O)[O-])ccc1C#N)c1nc2ccccc2[nH]c1=O` (stereo unspecified), the TGI in the assay on HOP-92 NSCLC, in the assay with COLO 205 colon, in the assay on TK-10 renal, with M14 melanoma, with HCT-116 colon and with IGROV1 ovarian was more than 100 µM in each case. Besides, the TGI in the assay on EKVX NSCLC, in the assay with MALME-3M melanoma and in the assay on A549 NSCLC was more than 100 µM in each case.
`NNC(=O)c1cccc2c1Oc1ccccc1S2`: the TGI with HOP-92 NSCLC, in the assay with COLO 205 colon, in the assay on TK-10 renal, with M14 melanoma, in the assay with HCT-116 colon and in the assay on IGROV1 ovarian was more than 100 µM each time. Moreover, the TGI in the assay with EKVX NSCLC and in the assay on A498 renal was more than 100 µM throughout.
Turning to `N/C(CSCCSC/C(N)=N/O)=N\O`, the TGI in the assay with HOP-92 NSCLC, in the assay on COLO 205 colon, with TK-10 renal, in the assay on M14 melanoma, in the assay with HCT-116 colon and with IGROV1 ovarian was more than 100 µM in each case. Further, the TGI in the assay on EKVX NSCLC, in the assay with MALME-3M melanoma and in the assay with A549 NSCLC was more than 100 µM each time.
For the compound `CC12CCC(C/C1=N\NC(N)=O)C2(C)C` (stereo unspecified), the TGI with HOP-92 NSCLC, with COLO 205 colon, in the assay on TK-10 renal, in the assay with M14 melanoma, with HCT-116 colon and in the assay with IGROV1 ovarian was more than 100 µM throughout. Further, the TGI with EKVX NSCLC, in the assay with MALME-3M melanoma and in the assay with A549 NSCLC was more than 100 µM each time.
As to `Cc1ccsc1C(=S)Nc1ccc(Cl)c(C(=O)OC(C(C)C)C(C)C)c1`, the TGI in the assay on HOP-92 NSCLC was 61.3 µM; with COLO 205 colon, 26.1 µM; in the assay with TK-10 renal, more than 100 µM; with M14 melanoma it was more than 100 µM; in the assay with HCT-116 colon, 75.5 µM; with IGROV1 ovarian, more than 100 µM. Moreover, the TGI in the assay with EKVX NSCLC, in the assay on A498 renal and in the assay on A549 NSCLC was more than 100 µM each time.
Turning to `COP(=O)(CC(=O)C1OC(OCc2ccccc2)C(OCc2ccccc2)C(OCc2ccccc2)C1OCc1ccccc1)OC` (stereo unspecified), the TGI in the assay with HOP-92 NSCLC is 85.7 µM; in the assay on COLO 205 colon, 15 µM; with TK-10 renal, 79.8 µM; with M14 melanoma, 70 µM; in the assay on HCT-116 colon, more than 100 µM; in the assay on IGROV1 ovarian it was more than 100 µM. Also, the TGI with EKVX NSCLC is 50.4 µM; in the assay with MALME-3M melanoma, 94.5 µM; in the assay on A549 NSCLC it was more than 100 µM.
On to `COC(=O)[C@H]1C=C[C@H](OC2OC(COC(C)=O)C(OC(C)=O)C(OC(C)=O)C2OC(C)=O)n2c(=O)n(-c3ccccc3)c(=O)n21` (stereo partly specified), for which the TGI was 3.9 µM in the assay on HOP-92 NSCLC; 3.6 µM in the assay on COLO 205 colon; 15.4 µM in the assay with TK-10 renal; 9.64 µM with M14 melanoma; more than 30.5 µM in the assay on HCT-116 colon; 18.4 µM in the assay with IGROV1 ovarian. For the same compound, the figures for the TGI in the assay on EKVX NSCLC, in the assay with A498 renal and in the assay with A549 NSCLC were 7.37 µM, 17.6 µM and 35.4 µM, respectively.
For `Cc1ncc([N+](=O)[O-])n1CCNC(=O)CCCCn1ccnc1[N+](=O)[O-]`, the TGI in the assay with COLO 205 colon, in the assay on M14 melanoma, with HCT-116 colon, in the assay with IGROV1 ovarian, in the assay with A498 renal and with MALME-3M melanoma was more than 100 µM in each case. This compound also showed a TGI in the assay with A549 NSCLC of more than 100 µM.
For `COc1ccc(/C=C/C(=O)c2sc(-n3nc(-c4ccccc4)cc3-c3ccccc3)nc2C)cc1OC`, the TGI in the assay with COLO 205 colon, with TK-10 renal, in the assay on M14 melanoma, in the assay on HCT-116 colon, with IGROV1 ovarian and in the assay with EKVX NSCLC was more than 100 µM each time. For the same compound, the TGI with MALME-3M melanoma and in the assay on A549 NSCLC was more than 100 µM in each case.
`Nc1nc(Nc2ccc(OCc3cccc(F)c3)cc2)c2c(n1)[nH]c1ccc(O)cc12`: the GI50 with HOP-92 NSCLC is 2.37 µM; in the assay with COLO 205 colon, 2.42 µM; with TK-10 renal it was 3.49 µM; in the assay with M14 melanoma it was 2.12 µM; in the assay with IGROV1 ovarian, 3.75 µM; in the assay with EKVX NSCLC, 8.86 µM. For the same compound, the figures for the GI50 with A498 renal and with A549 NSCLC were 15.7 µM and 4.13 µM, respectively. In addition, the TGI turned out to be 7.98 µM in the assay on HOP-92 NSCLC; 5.98 µM in the assay with COLO 205 colon; 16.4 µM in the assay on TK-10 renal; 4.77 µM in the assay on M14 melanoma; 14.7 µM in the assay on IGROV1 ovarian; 29.4 µM in the assay on EKVX NSCLC. Moreover, the TGI in the assay on A498 renal was found to be 33.1 µM; with A549 NSCLC it was 17.8 µM.
